Read-outs that look alike come from different tables or passages of the source.
Key:
[1] = test system: Aβ40 in conditioned medium of cells stably expressing Amyloid Precursor Protein (APP); test: In vitro BACE cell-based assay (HEK cell assay, Aβ40 sandwich ELISA); settings: Homo sapiens, HEK293; average IC50, Aβ40, 24 h incubation
Procedure, shortened: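 Aβ40 in supernatants was measured by time-resolved fluorescence sandwich ELISA using pAb40 capture and biotinylated 6E10 detection, with antibody incubations at 4 °C. Stable APP cells were exposed to compounds for 24 h in a 10-point series (top dose 100 or 10 µM, 0.1% DMSO). IC50 was fitted from the concentration-response.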

[2] = biological target: BACE 1 (beta secretase enzyme) (Homo sapiens (Human), UniProt P56817); test: In vitro enzymatic BACE FRET assay; assay type: biochemical; settings: average IC50
Procedure, shortened: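 The enzyme was tested in 0.05 M acetate, pH 4.2, with 10% DMSO final and 100 uM genapol. The reaction was started with 50 nM quenched FRET peptide substrate, incubated one hour and stopped with Tris to neutral pH. Cleavage was read as fluorescence ([…]).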

Cathepsin D = Cathepsin D (Homo sapiens (Human), UniProt P07339); test: In vitro enzymatic Cat D (Cathepsin D) FRET assay; assay type: biochemical; settings: average IC50
Procedure, shortened: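 CHO-expressed recombinant enzyme in 0.05 M citrate pH 3.5, 5 mM CHAPS, 10% DMSO final; reaction started with 20 nM quenched-peptide FRET substrate (cleavage site spanned by fluorophore/quencher), 1 h incubation.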

Abeta 40 = test: In vivo inhibition of beta-secretase: Abeta 40 reduction in CSF and brain of the rat; settings: 10 mpk, after 4 hrs
Source text: In Vivo Inhibition of Beta-Secretase
Several animal models, including mouse, rat, dog, and monkey, may be used to screen for inhibition of beta-secretase activity in vivo following administration of a test compound sample. Animals used in this invention can be wild type, transgenic, or gene knockout animals. For example, the Tg2576 mouse model, prepared and conducted as described in Hsiao et al., 1996, Science 274, 99-102, and other non-transgenic or gene knockout animals are useful to analyze in vivo inhibition of Amyloid beta peptide (Abeta) production in the presence of inhibitory test compounds. Generally, 2 to 18 month old Tg2576 mice, gene knockout mice or non-transgenic animals are administered test compounds formulated in vehicles, such as cyclodextran, phosphate buffers, hydroxypropyl methylcellulose or other suitable vehicles. One to twenty-four hours following the administration of compound, animals are sacrificed, and brains as well as cerebrospinal fluid (CSF) and plasma are removed for analysis of A-beta levels and drug or test compound concentrations (Dovey et al., 2001, Journal of Neurochemistry, 76, 173-181) Beginning at time 0, animals are administered by oral gavage, or other means of delivery such as intravenous injection, an inhibitory test compound of up to 100 mg/kg in a standard, conventional formulation, such as 2% hydroxypropyl methylcellulose, 1% Tween80. A separate group of animals receive 2% hydroxypropyl methylcellulose, 1% Tween80 alone, containing no test compound, and serve as a vehicle-control group. At the end of the test period, animals are sacrificed and brain tissues, plasma or cerebrospinal fluid are collected. Brains are either homogenized in 10 volumes (w/v) of 0.2% diethylamine (DEA) in 50 mM NaCl (Best et al., 2005, Journal of Pharmacology and Experimental Therapeutics, 313, 902-908), or in 10 volumes of 0.5% TritonX-100 in Tris-buffered saline (pH at about 7.6). Homogenates are centrifuged at 355,000 g, 4° C. for 30 minutes. CSF or brain supernatants are then analyzed for the presence of A-beta peptide by specific sandwich ELISA assays based on ECL (Electrochemiluminescence) technology. For example, rat Abeta40 is measured using biotinylated-4G8 (Signet) as a capture antibody and Fab40 (an in-house antibody specific to the C-terminal of Abeta40) as a detection antibody. For example, 4 hours after administration of 30 mg/kg oral dose of the test compound in 2% hydroxypropyl methylcellulose, 1% Tween80 (pH2.2) to 200 g male Sprague Dawley rats, amyloid beta peptide levels are measured for reduction by X % and Y % in cerebrospinal fluid and brain, respectively, when compared to the levels measured in the vehicle-treated rats.
• Oral: 2% HPMC, 1% Tween80, pH 2.2 • IV: 5% EtOH, 45% Propylene glycol in 5% Dextrose
The compounds of the invention may be shown to reduce the formation and/or deposition of amyloid beta peptide in the cerebrospinal fluid (CSF) as well as in the brain of a mouse or rat at either 3 mpk, 10 mpk or 30 mpk (mpk=mg compound per kg weight of the animal) dosing concentrations after 4 hrs.

[3] = Abeta 40, rat CSF, read-out: % reduction of rat CSF levels at 10 pmk
[4] = Abeta 40, rat brain, read-out: % reduction of rat brain levels at 10 mpk

Cathepsin D, sequence (P07339 65-412, species assumed): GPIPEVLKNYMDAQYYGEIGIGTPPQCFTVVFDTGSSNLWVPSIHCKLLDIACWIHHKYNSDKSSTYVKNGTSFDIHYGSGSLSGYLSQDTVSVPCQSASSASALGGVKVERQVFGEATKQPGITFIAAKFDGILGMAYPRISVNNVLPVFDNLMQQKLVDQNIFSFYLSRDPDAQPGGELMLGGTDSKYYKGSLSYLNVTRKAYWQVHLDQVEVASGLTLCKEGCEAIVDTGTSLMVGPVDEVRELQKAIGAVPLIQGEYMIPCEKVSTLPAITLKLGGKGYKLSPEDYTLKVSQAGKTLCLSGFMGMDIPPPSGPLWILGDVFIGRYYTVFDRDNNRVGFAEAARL
BACE 1 (beta secretase enzyme), sequence (P56817 46-501): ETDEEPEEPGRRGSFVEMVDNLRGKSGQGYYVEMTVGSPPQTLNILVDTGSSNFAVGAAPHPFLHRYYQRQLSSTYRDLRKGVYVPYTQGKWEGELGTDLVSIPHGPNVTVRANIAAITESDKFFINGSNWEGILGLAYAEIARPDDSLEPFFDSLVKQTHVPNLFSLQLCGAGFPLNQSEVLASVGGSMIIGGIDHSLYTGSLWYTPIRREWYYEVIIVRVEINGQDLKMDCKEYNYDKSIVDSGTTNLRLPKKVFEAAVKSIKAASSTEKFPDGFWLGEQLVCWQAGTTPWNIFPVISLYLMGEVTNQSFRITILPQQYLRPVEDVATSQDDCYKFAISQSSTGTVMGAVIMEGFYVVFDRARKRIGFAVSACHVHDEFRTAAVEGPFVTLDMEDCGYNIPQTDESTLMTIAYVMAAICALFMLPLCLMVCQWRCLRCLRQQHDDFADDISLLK

For `NC1=N[C@@]2(CCO1)c1cc(NC(=O)c3ccc(Cl)cn3)ccc1Oc1cnc(C3=CCCOC3)cc12` [Example 59, N-((5S)-2′-amino-3-(5,6-dihydro-2H-pyran-3-yl)-5′,6′-dihydrospiro[chromeno[2,3-c]pyridine-5,4′-[1,3]oxazin]-7-yl)-5-chloro-2-pyridinecarboxamide], the IC50 [1] was 0.5 nM, the IC50 [2] was 3 nM and the IC50 (Cathepsin D) was 400000 nM. It also gave an inhibition in vivo at 10 mg/kg (Abeta 40; [3]) of 57% and an inhibition in vivo at 10 mg/kg (Abeta 40; [4]) of 50%.
`NC1=N[C@@]2(CCO1)c1cc(NC(=O)c3ccc(Cl)cn3)ccc1Oc1c2cc(C2=CCOCC2)nc1F` [Example 63, N-((5S)-2′-amino-3-(3,6-dihydro-2H-pyran-4-yl)-1-fluoro-5′,6′-dihydrospiro[chromeno[2,3-c]pyridine-5,4′-[1,3]oxazin]-7-yl)-5-chloro-2-pyridinecarboxamide] gave an IC50 [1] of 0.1 nM, an IC50 [2] of 1.4 nM and an IC50 (Cathepsin D) of 400000 nM. The inhibition in vivo at 10 mg/kg (Abeta 40; [3]) was 80% and the inhibition in vivo at 10 mg/kg (Abeta 40; [4]) was 75%.
In the case of `COc1cnc(C(=O)Nc2ccc3c(c2)[C@@]2(CCOC(N)=N2)c2cc(C4=CCOCC4)nc(F)c2O3)cn1` [Example 65, N-((5S)-2′-amino-3-(3,6-dihydro-2H-pyran-4-yl)-1-fluoro-5′,6′-dihydrospiro[chromeno[2,3-c]pyridine-5,4′-[1,3]oxazin]-7-yl)-5-methoxy-2-pyrazinecarboxamide], the IC50 [1] is reported as 0.051 nM, the IC50 [2] is reported as 0.9 nM and the IC50 (Cathepsin D) is reported as 400000 nM. It also gave an inhibition in vivo at 10 mg/kg (Abeta 40; [3]) of 83% and an inhibition in vivo at 10 mg/kg (Abeta 40; [4]) of 71%.
Work on `COc1cnc(C(=O)Nc2ccc3c(c2)[C@@]2(CCSC(N)=N2)c2cc(C4=CCCOC4)nc(F)c2O3)cn1` [Example 66, N-((5S)-2′-amino-3-(5,6-dihydro-2H-pyran-3-yl)-1-fluoro-5′,6′-dihydrospiro[chromeno[2,3-c]pyridine-5,4′-[1,3]thiazin]-7-yl)-5-methoxy-2-pyrazinecarboxamide] yielded an IC50 [1] of 1 nM, an IC50 [2] of 1.8 nM and an IC50 (Cathepsin D) of 179000 nM. It also gave an inhibition in vivo at 10 mg/kg (Abeta 40; [3]) of 77% and an inhibition in vivo at 10 mg/kg (Abeta 40; [4]) of 66%.
`COc1cnc(C(=O)Nc2ccc3c(c2)[C@@]2(CCSC(N)=N2)c2cc(C4=CCOCC4)nc(F)c2O3)cn1` [Example 67, N-((5S)-2′-amino-3-(3,6-dihydro-2H-pyran-4-yl)-1-fluoro-5′,6′-dihydrospiro[chromeno[2,3-c]pyridine-5,4′-[1,3]thiazin]-7-yl)-5-methoxy-2-pyrazinecarboxamide] gave an IC50 [1] of 1.4 nM, an IC50 [2] of 1.6 nM and an IC50 (Cathepsin D) of 160000 nM. The inhibition in vivo at 10 mg/kg (Abeta 40; [3]) was 66% and the inhibition in vivo at 10 mg/kg (Abeta 40; [4]) was 58%.
For `NC1=N[C@@]2(CCS1)c1cc(NC(=O)c3ccc(Cl)cn3)ccc1Oc1c2cc(C2=CCCOC2)nc1F` [Example 68, N-((5S)-2′-amino-3-(5,6-dihydro-2H-pyran-3-yl)-1-fluoro-5′,6′-dihydrospiro[chromeno[2,3-c]pyridine-5,4′-[1,3]thiazin]-7-yl)-5-chloro-2-pyridinecarboxamide], the IC50 [1] was 0.5 nM, the IC50 [2] was 0.8 nM and the IC50 (Cathepsin D) was 217000 nM. For the same molecule, the inhibition in vivo at 10 mg/kg (Abeta 40; [3]) was 77% and the inhibition in vivo at 10 mg/kg (Abeta 40; [4]) was 73%.
`COc1cnc(C(=O)Nc2ccc3c(c2)[C@@]2(CCOC(N)=N2)c2cc(-c4cncc(F)c4)nc(F)c2O3)cn1` [Example 70, N-((5S)-2′-amino-1-fluoro-3-(5-fluoro-3-pyridinyl)-5′,6′-dihydrospiro[chromeno[2,3-c]pyridine-5,4′-[1,3]oxazin]-7-yl)-5-methoxy-2-pyrazinecarboxamide] gave an IC50 [1] of 0.6 nM, an IC50 [2] of 1.3 nM and an IC50 (Cathepsin D) of 400000 nM. The inhibition in vivo at 10 mg/kg (Abeta 40; [3]) was 70% and the inhibition in vivo at 10 mg/kg (Abeta 40; [4]) was 59%.
`NC1=N[C@@]2(CCO1)c1cc(NC(=O)c3ccc(Cl)cn3)ccc1Oc1c2cc(-c2cncc(F)c2)nc1F` [Example 71, N-((5S)-2′-amino-1-fluoro-3-(5-fluoro-3-pyridinyl)-5′,6′-dihydrospiro[chromeno[2,3-c]pyridine-5,4′-[1,3]oxazin]-7-yl)-5-chloro-2-pyridinecarboxamide] gave an IC50 [1] of 0.3 nM, an IC50 [2] of 0.6 nM and an IC50 (Cathepsin D) of 400000 nM. For the same molecule, the inhibition in vivo at 10 mg/kg (Abeta 40; [3]) was 79% and the inhibition in vivo at 10 mg/kg (Abeta 40; [4]) was 70%.
`NC1=N[C@@]2(CCO1)c1cc(NC(=O)c3ccc(F)cn3)ccc1Oc1c2cc(C2=CCOCC2)nc1F` [Example 72, N-((5S)-2′-amino-3-(3,6-dihydro-2H-pyran-4-yl)-1-fluoro-5′,6′-dihydrospiro[chromeno[2,3-c]pyridine-5,4′-[1,3]oxazin]-7-yl)-5-fluoro-2-pyridinecarboxamide] was tested, and the IC50 [1] was 0.2 nM, the IC50 [2] was 1.1 nM and the IC50 (Cathepsin D) was 358000 nM. It also gave an inhibition in vivo at 10 mg/kg (Abeta 40; [3]) of 78% and an inhibition in vivo at 10 mg/kg (Abeta 40; [4]) of 72%.
For `NC1=N[C@@]2(CCO1)c1cc(NC(=O)c3ccc(Cl)cn3)ccc1Oc1ncc(C3CC3)cc12` [Example 73, N-((5S)-2′-amino-3-cyclopropyl-5′,6′-dihydrospiro[chromeno[2,3-b]pyridine-5,4′-[1,3]oxazin]-7-yl)-5-chloro-2-pyridinecarboxamide], the IC50 [1] was 3.2 nM, the IC50 [2] was 12.7 nM and the IC50 (Cathepsin D) was 433000 nM. The inhibition in vivo at 10 mg/kg (Abeta 40; [3]) was 38% and the inhibition in vivo at 10 mg/kg (Abeta 40; [4]) was 7%.
`COc1ccc(C(=O)Nc2ccc3c(c2)[C@@]2(CCOC(N)=N2)c2cc(C4=CCOCC4)nc(F)c2O3)nc1` [Example 78, N-((5S)-2′-amino-3-(3,6-dihydro-2H-pyran-4-yl)-1-fluoro-5′,6′-dihydrospiro[chromeno[2,3-c]pyridine-5,4′-[1,3]oxazin]-7-yl)-5-methoxy-2-pyridinecarboxamide] showed an IC50 [1] of 0.2 nM, an IC50 [2] of 1.5 nM and an IC50 (Cathepsin D) of 184000 nM. For the same molecule, the inhibition in vivo at 10 mg/kg (Abeta 40; [3]) was 77% and the inhibition in vivo at 10 mg/kg (Abeta 40; [4]) was 70%.
With `COc1cnc(C(=O)Nc2ccc3c(c2)[C@@]2(CCOC(N)=N2)c2cc(C4CC4)ncc2O3)cn1` [Example 80, N-((5S)-2′-amino-3-cyclopropyl-5′,6′-dihydrospiro[chromeno[2,3-c]pyridine-5,4′-[1,3]oxazin]-7-yl)-5-methoxy-2-pyrazinecarboxamide] the IC50 [1] was 1.5 nM, the IC50 [2] was 6.8 nM and the IC50 (Cathepsin D) was 963000 nM. It also gave an inhibition in vivo at 10 mg/kg (Abeta 40; [3]) of 82% and an inhibition in vivo at 10 mg/kg (Abeta 40; [4]) of 80%.
With `NC1=N[C@@]2(CCO1)c1cc(NC(=O)c3ccc(Cl)cn3)ccc1Oc1cnc(C3CC3)cc12` [Example 81, N-((5S)-2′-amino-3-cyclopropyl-5′,6′-dihydrospiro[chromeno[2,3-c]pyridine-5,4′-[1,3]oxazin]-7-yl)-5-chloro-2-pyridinecarboxamide] the IC50 [1] was 1.1 nM, the IC50 [2] was 10.7 nM and the IC50 (Cathepsin D) was 400000 nM. The inhibition in vivo at 10 mg/kg (Abeta 40; [3]) was 76% and the inhibition in vivo at 10 mg/kg (Abeta 40; [4]) was 64%.
For `COc1ccc(C(=O)Nc2ccc3c(c2)[C@@]2(CCOC(N)=N2)c2cc(C4=CCCOC4)nc(F)c2O3)nc1` [Example 84, N-((5S)-2′-amino-3-(5,6-dihydro-2H-pyran-3-yl)-1-fluoro-5′,6′-dihydrospiro[chromeno[2,3-c]pyridine-5,4′-[1,3]oxazin]-7-yl)-5-methoxy-2-pyridinecarboxamide], the IC50 [1] was 0.1 nM, the IC50 [2] was 0.9 nM and the IC50 (Cathepsin D) was 313000 nM. For the same molecule, the inhibition in vivo at 10 mg/kg (Abeta 40; [3]) was 83% and the inhibition in vivo at 10 mg/kg (Abeta 40; [4]) was 71%.

— US9296759B2, “Amino-oxazine and amino-dihydrothiazine compounds as beta-secretase modulators and methods of use” (AMGEN INC., priority 2011, dated 2016)
